Assays:
[1] = biological target: 3',5'-cyclic-AMP phosphodiesterase 4B (Homo sapiens, UniProt Q07343); assay: Inhibition of human U937 cells-derived PDE4B using [3H]-cAMP as substrate measured after 30 mins
[2] = Inhibition of PDE4 in human PBMC assessed as reduction in LPS-stimulated TNFalpha release preincubated for 30 mins followed by LPS stimulation for 18 hrs by TR-FRET assay; assay type: cell-based
[3] = biological target: 3',5'-cyclic-AMP phosphodiesterase 4D (Homo sapiens, UniProt Q08499); assay: Inhibition of human U937 cells-derived PDE4D using [3H]-cAMP as substrate measured after 30 mins
Rattus norvegicus = assay: Anti-inflammatory activity in Sprague-Dawley rat model of LPS-induced asthma/COPD assessed as inhibition of neutrophilia in BALF at 10 mg/kg, po; assay type: functional
Mus musculus = assay: Anti-inflammatory activity in Swiss albino mouse model of sepsis assessed as inhibition of LPS-induced TNFalpha release at 10 mg/kg, po; assay type: functional

3',5'-cyclic-AMP phosphodiesterase 4B, sequence (Q07343 whole entry): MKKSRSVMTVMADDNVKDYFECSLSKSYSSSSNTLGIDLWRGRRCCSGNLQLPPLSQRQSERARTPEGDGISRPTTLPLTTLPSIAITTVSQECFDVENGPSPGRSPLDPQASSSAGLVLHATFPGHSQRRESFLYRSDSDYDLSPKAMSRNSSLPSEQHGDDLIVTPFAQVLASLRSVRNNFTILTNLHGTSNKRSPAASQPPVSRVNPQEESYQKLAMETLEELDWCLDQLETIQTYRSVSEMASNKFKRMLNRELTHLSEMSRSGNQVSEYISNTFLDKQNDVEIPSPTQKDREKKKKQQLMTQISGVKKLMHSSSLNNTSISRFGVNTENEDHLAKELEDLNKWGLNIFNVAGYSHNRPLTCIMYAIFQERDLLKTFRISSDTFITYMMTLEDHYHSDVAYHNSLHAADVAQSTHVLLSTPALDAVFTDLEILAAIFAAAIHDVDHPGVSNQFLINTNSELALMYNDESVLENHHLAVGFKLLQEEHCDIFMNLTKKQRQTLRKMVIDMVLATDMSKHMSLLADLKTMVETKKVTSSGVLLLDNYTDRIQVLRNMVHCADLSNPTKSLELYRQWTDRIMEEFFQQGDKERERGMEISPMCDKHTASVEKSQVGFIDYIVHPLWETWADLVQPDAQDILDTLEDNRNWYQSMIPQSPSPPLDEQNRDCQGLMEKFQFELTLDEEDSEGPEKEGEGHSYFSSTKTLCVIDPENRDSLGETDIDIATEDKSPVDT
3',5'-cyclic-AMP phosphodiesterase 4D, sequence (Q08499 whole entry): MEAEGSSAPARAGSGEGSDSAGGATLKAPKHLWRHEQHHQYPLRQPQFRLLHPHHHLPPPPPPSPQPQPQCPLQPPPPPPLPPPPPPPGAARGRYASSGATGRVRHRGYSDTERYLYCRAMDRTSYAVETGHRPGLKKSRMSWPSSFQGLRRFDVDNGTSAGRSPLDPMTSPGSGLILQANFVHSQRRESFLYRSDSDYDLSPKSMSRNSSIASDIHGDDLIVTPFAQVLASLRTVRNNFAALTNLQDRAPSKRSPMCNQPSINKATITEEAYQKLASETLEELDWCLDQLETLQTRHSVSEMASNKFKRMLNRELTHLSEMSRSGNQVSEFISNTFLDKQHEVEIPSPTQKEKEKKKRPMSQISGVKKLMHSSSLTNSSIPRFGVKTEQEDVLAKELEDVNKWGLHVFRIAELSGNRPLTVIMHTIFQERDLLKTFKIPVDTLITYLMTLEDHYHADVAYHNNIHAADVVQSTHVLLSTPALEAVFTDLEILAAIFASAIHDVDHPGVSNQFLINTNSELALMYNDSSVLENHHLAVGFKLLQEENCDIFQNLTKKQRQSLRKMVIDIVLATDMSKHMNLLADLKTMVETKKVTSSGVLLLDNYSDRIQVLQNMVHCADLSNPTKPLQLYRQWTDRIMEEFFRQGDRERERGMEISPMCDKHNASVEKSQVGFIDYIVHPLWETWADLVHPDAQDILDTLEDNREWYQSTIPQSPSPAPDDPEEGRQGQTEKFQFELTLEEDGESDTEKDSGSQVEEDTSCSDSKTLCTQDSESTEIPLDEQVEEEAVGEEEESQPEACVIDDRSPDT

Compound	IC50 [1]	IC50 [2]	IC50 [3]	inhibition in vivo at 10 mg/kg (Rattus norvegicus)	inhibition in vivo at 10 mg/kg (Mus musculus)
Cc1cc(C)n(C(=O)c2ccc(-c3ccccc3F)o2)n1	45.3 µM	98.2 µM			
Cc1cc(C)n(C(=O)c2ccc(-c3ccccc3)o2)n1	70.3 µM	178 µM			
Cc1cc(C)n(C(=O)c2ccc(-c3ccccc3[N+](=O)[O-])o2)n1	62.7 µM	168 µM			
Cc1cc(C)n(C(=O)c2ccc(-c3cccc(F)c3)o2)n1	20.2 µM	70.8 µM			
Cc1cc(C)n(C(=O)c2ccc(-c3ccccc3Cl)o2)n1	52.4 µM	112 µM			
Cc1cc(C)n(C(=O)c2ccc(-c3ccc(F)cc3F)o2)n1	3.2 µM	19.2 µM	19.6 µM	24.2%	29.6%
Cc1cc(C)n(C(=O)c2ccc(-c3c(F)cccc3F)o2)n1	14.5 µM	88.7 µM	88.2 µM		
COc1ccc(C2CNC(=O)C2)cc1OC1CCCC1 (centres undefined) [ROLIPRAM]		16.5 µM		32.8%	41.7%
Cc1cc(C)n(C(=O)c2ccc(-c3cccc([N+](=O)[O-])c3)o2)n1	35.9 µM	69.3 µM			
Cc1cc(C)n(C(=O)c2ccc(-c3cccc(Cl)c3)o2)n1	20.9 µM	58.4 µM			

The next lines start with results.

IC50 [1]	IC50 [2]	IC50 [3]	Compound	inhibition in vivo at 10 mg/kg (Rattus norvegicus)	inhibition in vivo at 10 mg/kg (Mus musculus)
15.4 µM	41.7 µM	87.3 µM	Cc1cc(C)n(C(=O)c2ccc(-c3ccc([N+](=O)[O-])cc3)o2)n1		
1.7 µM	10.4 µM	9.6 µM	COc1ccc(-c2ccc(C(=O)n3nc(C)cc3C)o2)cc1	36.5%	43.1%
3.9 µM	25.1 µM	26.4 µM	Cc1cc(C)n(C(=O)c2ccc(-c3ccc(Cl)cc3)o2)n1		
8.4 µM	37.1 µM	52.9 µM	Cc1ccc(-c2ccc(C(=O)n3nc(C)cc3C)o2)cc1		
7.2 µM	24.3 µM	49.3 µM	Cc1cc(C)n(C(=O)c2ccc(-c3ccc(F)cc3)o2)n1		
51.1 µM	154 µM		Cc1cc(C)n(C(=O)c2ccc(-c3ccc(Br)cc3)o2)n1		

Source: ChEMBL document CHEMBL4265881, “Synthesis and bioactivity of 3,5-dimethylpyrazole derivatives as potential PDE4 inhibitors” (Bioorg Med Chem Lett, 2018)
